Experiments:
rats = assay: warm water tail withdrawal assay (antinociception); conditions: for % MPE (at 0.1 mg/kg): 0.1 mg/kg i.v., mean (95% confidence interval); for ED50: Rattus norvegicus, iv
hDOR = hDOR (Homo sapiens, UniProt P41143); assay: [35S]GTPγS binding, G-protein activation; format: biochemical; conditions: for type of activity at hDOR: 1 μM, no activation; for Emax at 1 µM: hDOR, determined from single-concentration (1 μM) experiments, read-out: Emax (% of vehicle)
[1] = for NorBUP in fetal brains or maternal plasma: 1 or 3 mg/kg/day s.c. minipump, GD 9-20
[2] = 4 mg/kg i.v.; data not shown
hMOR = hMOR (Homo sapiens, UniProt P35372); assay: biochemical; conditions: read-out: Emax (% of vehicle)
Chain of hMOR (P35372 whole entry): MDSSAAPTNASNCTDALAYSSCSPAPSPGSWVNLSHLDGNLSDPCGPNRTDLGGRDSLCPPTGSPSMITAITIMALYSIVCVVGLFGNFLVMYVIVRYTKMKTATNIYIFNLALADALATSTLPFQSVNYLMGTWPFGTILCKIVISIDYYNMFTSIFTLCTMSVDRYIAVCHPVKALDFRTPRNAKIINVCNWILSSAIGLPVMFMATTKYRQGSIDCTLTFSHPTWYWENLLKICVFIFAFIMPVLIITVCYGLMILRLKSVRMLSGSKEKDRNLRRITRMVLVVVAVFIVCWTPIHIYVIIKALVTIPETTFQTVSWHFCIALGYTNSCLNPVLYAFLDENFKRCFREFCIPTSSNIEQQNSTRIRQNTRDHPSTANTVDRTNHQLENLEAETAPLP

Chain of hDOR (P41143 whole entry): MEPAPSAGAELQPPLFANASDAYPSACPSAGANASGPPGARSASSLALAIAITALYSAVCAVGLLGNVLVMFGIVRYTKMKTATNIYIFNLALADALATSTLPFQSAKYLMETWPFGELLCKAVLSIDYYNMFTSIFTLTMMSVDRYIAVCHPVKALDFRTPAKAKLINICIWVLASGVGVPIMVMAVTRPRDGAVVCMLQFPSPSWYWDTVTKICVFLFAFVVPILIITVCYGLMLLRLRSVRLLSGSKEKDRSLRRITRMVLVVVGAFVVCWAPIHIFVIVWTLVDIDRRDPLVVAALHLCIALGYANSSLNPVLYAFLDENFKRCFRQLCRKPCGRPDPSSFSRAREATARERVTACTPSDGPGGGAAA

Row | SMILES | % MPE (at 0.1 mg/kg) (rats; 10 minutes) | % MPE (at 0.1 mg/kg) (rats; 60 minutes) | ED50 (rats; 10 min) [mg/kg] | ED50 (rats; 1 h) [mg/kg] | type of activity at hDOR (hDOR) | Emax at 1 µM (hDOR) [%] | NorBUP in fetal brains or maternal plasma [1] | area under the NorBUP glucuronide curve, BUP versus BUP-D2 group [2] | area under the curve vs. BUP ([1]; maternal plasma, data not shown) | Emax (hMOR) [%]
1 | CO[C@@]12CC[C@@]3(C[C@@H]1[C@](C)(O)C(C)(C)C)C1Cc4ccc(O)c5c4[C@@]3(CCN1CC1CC1)[C@H]2O5 [BUP, buprenorphine] | 90.1 (68.8-111.4) % MPE | 96.8 (83.2-110.5) % MPE | 0.025 | 0.021 | neutral antagonists of hDORs | 114 | detected no NorBUP | significantly greater | – | –
2 | [2H]C([2H])(C1CC1)N1CC[C@]23c4c5ccc(O)c4O[C@H]2[C@@]2(OC)CC[C@@]3(C[C@@H]2[C@](C)(O)C(C)(C)C)C1C5 [BUP-D2, (4aS,6R,7R,7aR,12bS)-3-(cyclopropylmethyl-d2)-6-((S)-2-hydroxy-3,3-dimethylbutan-2-yl)-7-methoxy-1,2,3,4,5,6,7,7a-octahydro-4a,7-ethano-4,12-methanobenzofuro[3,2-e]isoquinolin-9-ol] | 84.4 (43.5-125.2) % MPE | 97.9 (89.1-106.8) % MPE | 0.021 | 0.018 | neutral antagonists of hDORs | 107 | detected no NorBUP | – | significantly greater | –
3 | C[C@@H](NC(=O)[C@@H](N)Cc1ccc(O)cc1)C(=O)NCC(=O)N(C)[C@@H](Cc1ccccc1)C(=O)NCCO [DAMGO] | – | – | – | – | – | – | – | – | – | 308
